Test results reported in patent US9169290B2, “Peptides and their use” (priority 2007, dated 2015).
Like-named read-outs stand apart in the source and are kept apart here.

Legend:
[1] = tested on: C. parapsilosis; assay type: cell-based, Candida parapsilosis
Method: (§1) Broth Dilution Antifungal Susceptibility Testing
The sensitivity of relevant fungal strains to the peptides was determined using Clinical Laboratory Standard Institute (CLSI; formerly NCCLS) Approved Standards. Fungal susceptibility was tested using “Reference Method for Broth Dilution Antifungal Susceptibility Testing of Filamentous Fungi; […];

[2] = tested on: C. krusei; assay type: cell-based, Candida krusei
Method: as §1
(§2) The sensitivity of relevant fungal strains to the peptides was determined using Clinical Laboratory Standard Institute (CLSI; formerly NCCLS) Approved Standards.

[3] = tested on: A. niger; test: Broth dilution antifungal susceptibility testing of filamentous fungi (CLSI M38-P), MIC; assay type: cell-based, Aspergillus niger
Method: as §1
(§3) The sensitivity of relevant fungal strains to the peptides was determined using Clinical Laboratory Standard Institute (CLSI; formerly NCCLS) Approved Standards. Fungal susceptibility was tested using “Reference Method for Broth Dilution Antifungal Susceptibility Testing of Filamentous Fungi; Approved Standard M38-P”, and yeast susceptibility was tested using “Reference Method for Broth Dilution Antifungal Susceptibility Testing of Yeasts; Approved Standard—Second Edition M27-A”.

[4] = tested on: Cryptococcus neoformans; test: Broth dilution antifungal susceptibility testing of yeasts (CLSI M27-A), MIC; assay type: cell-based; conditions: Cryptococcus neoformans strain DSM11959
Method: as §1, §3

[5] = tested on: C. tropicalis; test: as above; assay type: cell-based, Candida tropicalis
Method: as §1, §3

[6] = tested on: A. nidulans; test: Broth dilution antifungal susceptibility testing of filamentous fungi (CLSI M38-P), MIC; assay type: cell-based, Aspergillus nidulans
Method: as §1, §3

[7] = tested on: C. albicans; assay type: cell-based, Candida albicans
Method: as §1, §2

[8] = tested on: C. glabrata; test: Broth dilution antifungal susceptibility testing of yeasts (CLSI M27-A), MIC; assay type: cell-based, Candida glabrata
Method: as §1, §3

[9] = tested on: Alternaria spp.; test: Broth dilution antifungal susceptibility testing, MIC; assay type: cell-based; conditions: Alternaria spp. strain DM 2006 1218a
Method: as §1, §3

[10] = tested on: Penicillium spp.; test: as above; assay type: cell-based; conditions: Penicillium spp. strain DM 2006 1285b
Method: as §1, §3

[11] = tested on: Scopulariopsis brevicaulis; test: as above; assay type: cell-based; conditions: Scopulariopsis brevicaulis strain DM 2006 1025
Method: as §1, §3

[12] = tested on: Fusarium solani; test: as above; assay type: cell-based; conditions: Fusarium solani strain NCPF2877
Method: as §1, §3

N=C(N)NCCC[C@@H](N)C(=O)N[C@H](CCCNC(=N)N)C(=O)N[C@H](CCCNC(=N)N)C(=O)N[C@H](CCCNC(=N)N)C(=O)N[C@H](CCCNC(=N)N)C(=O)N[C@H](CCCNC(=N)N)C(=O)N[C@H](CCCNC(=N)N)C(=O)N[C@H](CCCNC(=N)N)C(=O)N[C@H](CCCNC(=N)N)C(=O)N[C@H](CCCNC(=N)N)C(=O)N[C@H](CCCNC(=N)N)C(=O)N[C@H](CCCNC(=N)N)C(=O)N[C@H](CCCNC(=N)N)C(=O)O [NP339, dRdRdRdRdRdRdRdRdRdRdRdRdR]
2 to 16 µM: MIC ([1]; C. parapsilosis strain AM2005/0337)
1000 µM: MIC ([3]; A. niger strain AFG 01-237) | MIC ([3]; A. niger strain AFG 01-385) | MIC ([6]; A. nidulans strain AFG00-676) | MIC ([6]; A. nidulans strain AFG01-835)
15.6 µM: MIC [10]
16 µM: MIC ([1]; C. parapsilosis strain AM2005/0238)
4 µM: MIC ([1]; C. parapsilosis strain AM2005/0242)
256 µM: MIC ([6]; A nidulans strain AFG99-247)
3.9 µM: MIC ([6]; A nidulans strain NCPF2691) | MIC [12]
2 µM: MIC ([1]; C. parapsilosis strain AM2005-0112) | MIC ([1]; C. parapsilosis strain AM2007/0136) | MIC ([1]; C. parapsilosis strain ATCC90018) | MIC ([2]; C. krusei strain AM2005/0496) | MIC ([2]; C. krusei strain AM2005/0525) | MIC ([2]; C. krusei strain AM2005/0531) | MIC ([2]; C. krusei strain AM2007/0102) | MIC ([2]; C. krusei strain AM2007/0103) | MIC ([2]; C. krusei strain AM30274.04) | MIC ([2]; C. krusei strain AM30332.04.05) | MIC ([2]; C. krusei strain AM31194/04/05) | MIC ([2]; C. krusei strain AM31300/04/05) | MIC ([2]; C. krusei strain ATCC6258) | MIC ([5]; C. tropicalis strain ATCC750) | MIC, Candida albicans ATCC90028 [7] | MIC ([8]; C. glabrata strain AM2002/0085) | MIC ([8]; C. glabrata strain AM2007/0113) | MIC ([8]; C. glabrata strain AM2007/0115) | MIC ([8]; C. glabrata strain AM2007/0118) | MIC ([8]; C. glabrata strain AM2007/0120) | MIC ([8]; C. glabrata strain AM2007/0125)
7.8 µM: MIC ([3]; A. niger strain NCPF2022) | MIC [9]
4000 µM: MIC ([6]; A nidulans strain AFG97-71)
1 µM: MIC ([1]; C. parapsilosis strain AM2005/0237) | MIC ([1]; C. parapsilosis strain AM2005/0239) | MIC ([2]; C. krusei strain AM2005/0492) | MIC ([2]; C. krusei strain AM2005/0494) | MIC ([2]; C. krusei strain AM2005/0498) | MIC ([2]; C. krusei strain AM2006/0127) | MIC ([2]; C. krusei strain AM2007/0104) | MIC ([2]; C. krusei strain AM2007/0105) | MIC ([2]; C. krusei strain AM2007/0106) | MIC ([2]; C. krusei strain AM2007/0107) | MIC ([2]; C. krusei strain AM2007/0109) | MIC ([2]; C. krusei strain AM30308.03.05) | MIC ([2]; C. krusei strain AM30455.04.05) | MIC [4] | MIC ([5]; C. tropicalis strain AM2004/0087) | MIC ([5]; C. tropicalis strain AM2004/0088) | MIC ([5]; C. tropicalis strain AM2004/0089) | MIC ([5]; C. tropicalis strain AM2004/0090) | MIC ([5]; C. tropicalis strain AM2004/0091) | MIC ([8]; C. glabrata strain AM2002/0088) | MIC ([8]; C. glabrata strain AM2007/0114) | MIC ([8]; C. glabrata strain AM2007/0116) | MIC ([8]; C. glabrata strain AM2007/0117) | MIC ([8]; C. glabrata strain AM2007/0119) | MIC ([8]; C. glabrata strain AM2007/0121) | MIC ([8]; C. glabrata strain AM2007/0122) | MIC ([8]; C. glabrata strain AM2007/0123) | MIC ([8]; C. glabrata strain AM2007/0124) | MIC ([8]; C. glabrata strain AM2007/0126) | MIC ([8]; C. glabrata strain AM2007/0127) | MIC ([8]; C. glabrata strain AM2007/0128) | MIC ([8]; C. glabrata strain AM2007/0129) | MIC ([8]; C. glabrata strain AM2007/0130) | MIC [11]
4 to 32 µM: MIC ([1]; C. parapsilosis strain AM2007/0131) | MIC ([1]; C. parapsilosis strain AM2007/0134)
16 to 32 µM: MIC ([1]; C. parapsilosis strain AM2007/0132) | MIC ([1]; C. parapsilosis strain AM2007/0138)
8 µM: MIC ([1]; C. parapsilosis strain AM2005/0233) | MIC ([1]; C. parapsilosis strain AM2007/0139)
1 to 2 µM: MIC ([1]; C. parapsilosis strain AM2004/0133) | MIC ([1]; C. parapsilosis strain AM2007/0135) | MIC ([1]; C. parapsilosis strain ATCC22019)
62.5 µM: MIC ([3]; A. niger strain AFG 01-60) | MIC ([3]; A. niger strain AFG 01-381) | MIC ([3]; A. niger strain AFG 01-423) | MIC ([3]; A. niger strain AFG 01-783) | MIC ([3]; A. niger strain AFG 01-809) | MIC ([3]; A. niger strain AFG 01-1237) | MIC ([3]; A. niger strain AFG 01-1286) | MIC ([3]; A. niger strain AFG 01-1424) | MIC ([3]; A. niger strain AFG 01-1494) | MIC ([3]; A. niger strain AFG 01-2103) | MIC ([3]; A. niger strain AFG 01-2112) | MIC ([3]; A. niger strain AFG 01-2267) | MIC ([3]; A. niger strain AFG 01-2840) | MIC ([3]; A. niger strain AFG J940179) | MIC ([3]; A. niger strain AFG J970467) | MIC ([6]; A nidulans strain AFG99-1373) | MIC ([6]; A. nidulans strain AFG01-1716) | MIC ([6]; A. nidulans strain AFG97-453) | MIC ([6]; A. nidulans strain AFG 98-281) | MIC ([6]; A. nidulans strain AFG99-2387) | MIC ([6]; A. nidulans strain AFGR2952)
125 µM: MIC ([6]; A. nidulans strain AFG9811-35)
>4000 µM: MIC ([3]; A. niger strain AFG 01-2620)
8 to 32 µM: MIC ([1]; C. parapsilosis strain AM2007/0137)
